Results on 43 compounds are retold here after patent US20250388560A1, “AROMATIC COMPOUND AND USE THEREOF” (HITGEN INC., priority 2023, published 2025).

Some results are limits rather than exact numbers.

TRIM21 protein, sequence (P19474 whole entry, species assumed): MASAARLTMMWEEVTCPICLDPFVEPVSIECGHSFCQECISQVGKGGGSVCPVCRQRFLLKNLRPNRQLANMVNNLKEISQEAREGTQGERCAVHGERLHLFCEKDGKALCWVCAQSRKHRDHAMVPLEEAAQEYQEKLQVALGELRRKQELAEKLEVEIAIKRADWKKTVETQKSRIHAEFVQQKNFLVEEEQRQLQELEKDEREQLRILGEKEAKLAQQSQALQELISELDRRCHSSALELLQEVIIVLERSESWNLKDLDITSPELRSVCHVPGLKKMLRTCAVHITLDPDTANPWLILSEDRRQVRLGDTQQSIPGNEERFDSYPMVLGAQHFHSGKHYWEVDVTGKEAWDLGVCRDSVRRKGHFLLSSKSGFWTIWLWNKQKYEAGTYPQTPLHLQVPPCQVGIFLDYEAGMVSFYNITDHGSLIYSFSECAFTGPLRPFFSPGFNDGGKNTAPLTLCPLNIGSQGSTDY

This experiment has as its target TRIM21 protein (Homo sapiens (Human), UniProt P19474). Put plainly: SPR binding assay (Biacore 8K) of compounds to immobilised TRIM21 protein. The conditions noted are these: 25° C., steady state affinity model (1:1 binding model), read-out: TRIM21 Kd Test Value. Here is the method:
The protein fixation buffer, the running buffer A and the running buffer B were prepared and filtered through a […] membrane prior to use.
A surface of a CM5 chip was washed for three times with 50 mM NaOH at a flow rate of 60.0 μL/min and 60 seconds per wash. […] The CM5 chip was activated for 420 s at a flow rate of 6.0 μL/min. A strep tactin XT fixation buffer fixation built in the twin strep tag capture kit was used to prepare a 50.0 µg/mL Strep tactin XT. The Strep tactin XT was injected at a flow rate of 5.0 μL/min for 600 s. After injection of […], 1 M ethanolamine from the amine coupling kit was injected at a flow rate of 6.0 μL/min for 7 min to close the surface of the CM5 chip.
The running buffer A was used as the protein fixation buffer. The protein fixation buffer and the TRIM21 protein were mixed to prepare a 40.0 µg/mL mixed solution. The 40.0 µg/mL mixed solution was injected at flow rate of 5.0 μL/min for 600 s, and the TRIM21 protein was captured on the CM5 chip through Strep tactin XT.
A compound to be tested was diluted with 100% DMSO to a concentration that was 100 times a required final concentration and mixed evenly, and […] of such solution was added into […] of the running buffer A, followed by centrifugation at 15,000 rpm for 5 min to obtain an X compound solution contained with 1% DMSO.
The X compound was subjected to 8-point, 2-fold serial dilutions with the running buffer B, starting from an initial concentration. The diluted X compound was transferred into the 96-well plate for sample injection.
A Biacore 8K Control software was started, and tests were run in a 25° C. environment. During program running, the running buffer B was used at a flow rate of 30.0 μL/min. The running buffer B was injected for three times to complete balance. […] An injection needle was cleaned with 50% DMSO after each injection.
A response value of binding of the X compound and the TRIM21 protein was corrected after deducting a reference channel and 0 concentration. A binding affinity Kd was matched by a steady state affinity model (1:1 binding model) through the Biacore Insight Evaluation Software.
The binding affinities between X compounds of the embodiments of the present disclosure were tested according the above method.
On to `CN(CC1CCCCC1)C(=O)c1ccc(-c2ccccc2C(C)(C)O)cc1S(C)(=O)=O` [Compound 42], for which the Kd lay in the range of 100 to 1000 nM.

In the case of `COc1cc(CN(C)C(=O)c2ccc(-c3ccccc3SC)cc2S(C)(=O)=O)ccn1` [Compound 16], the dissociation constant (Kd) lay in the range of 100 to 1000 nM.

With `CSc1ccccc1-c1ccc(C(=O)N(C)[C@H](C)C2CCCC2)c(S(C)(=O)=O)c1` [Compound 20], the Kd is 100 to 1000 nM.

Take `CSc1ccccc1-c1ccc(C(=O)N(C)c2ccccc2)c(S(C)(=O)=O)c1` [Compound 12]: the Kd lay within 1000 to 10000 nM.

Take `CSc1ccccc1-c1ccc(C(=O)N(C)CC2(F)CCCCC2)c(S(C)(=O)=O)c1` [Compound 6]: the Kd lay in the range of 100 to 1000 nM.

With `COc1ccccc1-c1ccc(C(=O)N(C)[C@H](C)C2CC2)c(S(C)(=O)=O)c1` [Compound 32], the dissociation constant Kd was in the range of 1000 to 10000 nM.

For `CSc1ccccc1-c1ccc(C(=O)N(C)CC2CN(C(C)=O)C2)c(S(C)(=O)=O)c1` [Compound 13], the dissociation constant (Kd) fell in the range of 100 to 1000 nM.

As to `CN(CC1CCCCC1)C(=O)c1ccc(-c2cccc3ccoc23)cc1S(C)(=O)=O` [Compound 47], the Kd is over 10000 nM.

For `CCc1ccccc1CN(C)C(=O)c1ccc(-c2ccccc2SC)cc1S(C)(=O)=O` [Compound 8], the Kd was in the range of 100 to 1000 nM.

With `CSc1ccccc1-c1ccc(C(=O)N(C)CC2CCCCC2)c(S(C)(=O)=O)c1` [Compound 2], the Kd lay within 100 to 1000 nM.

In the case of `COc1ccccc1-c1ccc(C(=O)N(C)[C@H](C)C2CCCC2)c(S(C)(=O)=O)c1` [Compound 33], the Kd was 1000 to 10000 nM.

`COc1ccccc1-c1ccc(C(=O)N(C)CC2CCC(O)CC2)c(S(C)(=O)=O)c1` (stereo not shown) [Compound 35]: the Kd was 100 to 1000 nM.

In the case of `CSc1ccccc1-c1ccc(C(=O)N(C)Cc2cnoc2)c(S(C)(=O)=O)c1` [Compound 7], the Kd is 100 to 1000 nM.

As for `COc1cnccc1-c1ccc(C(=O)N(C)CC2CCCCC2)c(S(C)(=O)=O)c1` [Compound 43], the Kd fell in the range of 1000 to 10000 nM.

In the case of `COc1cc(CN(C)C(=O)c2ccc(-c3ccccc3OC)cc2S(C)(=O)=O)ccn1` [Compound 27], the Kd lay within 10 to 100 nM.

With `CC(C)c1ccccc1-c1ccc(C(=O)N(C)CC2CCCCC2)c(S(C)(=O)=O)c1` [Compound 46], the dissociation constant (Kd) was in the range of 100 to 1000 nM.

`CN(CC1CCCCC1)C(=O)c1ccc(-c2ccc(F)cc2)cc1S(C)(=O)=O` [Compound 54]: the Kd lay within 1000 to 10000 nM.

Turning to `CSc1ccccc1-c1ccc(C(=O)N(C)CC2CCOCC2)c(S(C)(=O)=O)c1` [Compound 23], the equilibrium dissociation constant (Kd) lay in the range of 10 to 100 nM.

On to `CCC(CC)CN(C)C(=O)c1ccc(-c2ccccc2SC)cc1S(C)(=O)=O` [Compound 10], for which the dissociation constant Kd was 100 to 1000 nM.

Consider `CSc1ccccc1-c1ccc(C(=O)N(C)CC2CCCCC2(F)F)c(S(C)(=O)=O)c1` (stereo not shown) [Compound 5], for which the equilibrium dissociation constant (Kd) fell in the range of 1000 to 10000 nM.

In the case of `COc1ccccc1-c1ccc(C(=O)N(C)CC2CCOCC2)c(S(C)(=O)=O)c1` [Compound 34], the Kd is 100 to 1000 nM.

Take `COc1cc(F)ccc1-c1ccc(C(=O)N(C)CC2CCCCC2)c(S(C)(=O)=O)c1` [Compound 52]: the dissociation constant (Kd) was 1 to 10 nM.

Turning to `CN(CC1CCCCC1)C(=O)c1ccc(-c2ccccc2C(F)(F)F)cc1S(C)(=O)=O` [Compound 39], the equilibrium dissociation constant (Kd) was in the range of 100 to 1000 nM.

As for `CSc1ccccc1-c1ccc(C(=O)N(C)Cc2ccsc2)c(S(C)(=O)=O)c1` [Compound 4], the dissociation constant Kd is 100 to 1000 nM.

Consider `CNC(=O)c1ccc(-c2ccccc2SC)cc1S(C)(=O)=O` [Compound 1], for which the Kd was 100 to 1000 nM.

`CSc1ccccc1-c1ccc(C(=O)N(C)CC2CCOC2)c(S(C)(=O)=O)c1` (stereo not shown) [Compound 15]: the Kd fell in the range of 100 to 1000 nM.

For `CSc1ccccc1-c1ccc(C(=O)N(C)Cc2cc[nH]c2)c(S(C)(=O)=O)c1` [Compound 11], the Kd is 10 to 100 nM.

Turning to `COc1ccccc1-c1ccc(C(=O)N(C)CC2COC2)c(S(C)(=O)=O)c1` [Compound 30], the Kd lay within 1000 to 10000 nM.

Take `COc1ccccc1-c1ccc(C(=O)N(C)CC2CN(C(C)=O)C2)c(S(C)(=O)=O)c1` [Compound 26]: the Kd is over 10000 nM.

`COc1ccccc1-c1ccc(C(=O)N(C)C(C)C2COC2)c(S(C)(=O)=O)c1` (stereo not shown) [Compound 31]: the Kd lay in the range of 1000 to 10000 nM.

For the compound `CN(CC1CCCCC1)C(=O)c1ccc(-c2ccccc2F)cc1S(C)(=O)=O` [Compound 45], the dissociation constant (Kd) is 1000 to 10000 nM.

With `CN(CC1CCCCC1)C(=O)c1ccc(-c2ccc(F)cc2C2CC2)cc1S(C)(=O)=O` [Compound 41], the Kd lay in the range of 10 to 100 nM.

On to `CSc1ccccc1-c1ccc(C(=O)N(C)C2CCCCC2)c(S(C)(=O)=O)c1` [Compound 9], for which the dissociation constant (Kd) was 1000 to 10000 nM.

On to `COc1ccccc1-c1ccc(C(=O)N(C)Cc2cc[nH]c(=O)c2)c(S(C)(=O)=O)c1` [Compound 28], for which the Kd fell in the range of 10 to 100 nM.

With `COc1ccccc1-c1ccc(C(=O)N(C)[C@H](C)C2CCC2)c(S(C)(=O)=O)c1` [Compound 24], the Kd was 1000 to 10000 nM.

Regarding `CSc1ccccc1-c1ccc(C(=O)N(C)[C@H](C)C2CCC2)c(S(C)(=O)=O)c1` [Compound 14], the Kd fell in the range of 100 to 1000 nM.

In the case of `COc1ccccc1-c1ccc(C(=O)N(C)Cc2cc[nH]c2)c(S(C)(=O)=O)c1` [Compound 29], the equilibrium dissociation constant (Kd) was 10 to 100 nM.

`Cc1ccccc1-c1ccc(C(=O)N(C)CC2CCCCC2)c(S(C)(=O)=O)c1` [Compound 38]: the dissociation constant (Kd) fell in the range of 100 to 1000 nM.

On to `COc1ccccc1-c1ccc(C(=O)N(C)CC2CCCCC2)c(S(C)(=O)=O)c1` [Compound 37], for which the Kd is 100 to 1000 nM.

Take `COc1ccccc1-c1ccc(C(=O)N(C)CC2CCOC2)c(S(C)(=O)=O)c1` (stereo not shown) [Compound 25]: the Kd lay within 1000 to 10000 nM.

Regarding `CSc1ccccc1-c1ccc(C(=O)N(C)Cc2ccc3c(c2)OCO3)c(S(C)(=O)=O)c1` [Compound 3], the Kd was in the range of 10 to 100 nM.

Turning to `CSc1ccccc1-c1ccc(C(=O)N(C)Cc2cc[nH]c(=O)c2)c(S(C)(=O)=O)c1` [Compound 18], the Kd fell in the range of 1000 to 10000 nM.

`CSc1ccccc1-c1ccc(C(=O)N(C)[C@H](C)C2CC2)c(S(C)(=O)=O)c1` [Compound 19]: the Kd was 100 to 1000 nM.
